Measured values from ChEMBL document CHEMBL1153254, “Vasorelaxant activity of 2-substituted 6-nitro-2H-1-benzopyran-4-carbothioamide K+ channel openers” (Bioorg Med Chem Lett, 1993).

Key:
Rattus norvegicus [1] = species on record: Rattus norvegicus; experiment: Intrinsic activity in rat isolated aorta; type: functional
Rattus norvegicus [2] = species on record: Rattus norvegicus; experiment: Negative logarithm of the molar concentration required to relax rat aorta precontracted with 30 mM KCl by 50% of intrinsic activity; type: functional; conditions: for EC50: Rattus norvegicus, Aorta

SMILES | EC50 (Rattus norvegicus [2]) [nM] | Log EC50 (Rattus norvegicus [2]) | IA (Rattus norvegicus [1]) [%]
C/N=C(/S)C1=CC(C)(C)Oc2ccc(C#N)cc21 | – | – | 89
C/N=C(/S)C1c2cc([N+](=O)[O-])ccc2OC(C)(C)C1O (stereo in doubt; cis) | – | -6.96 | 57.9
CC(N/C(=N\C#N)Nc1ccncc1)C(C)(C)C (stereo unspecified) [PINACIDIL ANHYDROUS] | – | – | 91.9
C/N=C(/S)C1=CC2(CCCC2)Oc2ccc([N+](=O)[O-])cc21 | 0.0251 | – | 77.7
CC1(C)Oc2ccc(C#N)cc2[C@@H](N2CCCC2=O)[C@@H]1O [CROMAKALIM] | – | – | 74.7
C/N=C(/S)C1=C(O)C(C)(C)Oc2ccc([N+](=O)[O-])cc21 | 1120 | – | 93.9
C/N=C(/S)C1=CC2(Oc3ccc([N+](=O)[O-])cc31)C1CC3CC(C1)CC2C3 (stereo unspecified) | 407 | – | 87.9
C/N=C(/S)C1c2cc([N+](=O)[O-])ccc2OC(C)(C)C1O (stereo in doubt; trans) | – | -6.58 | 73.2
C/N=C(/S)C1=CC(C)(C)Oc2ccc([N+](=O)[O-])cc21 | – | – | 63.5
C/N=C(/S)C1=CC2(CCCCC2)Oc2ccc([N+](=O)[O-])cc21 | 0.112 | – | 77.6
C/N=C(/S)C1=CC2(CCCCCC2)Oc2ccc([N+](=O)[O-])cc21 | 47.9 | – | 61.5

More lines, main results first:

EC50 (Rattus norvegicus [2]) [nM] | Log EC50 (Rattus norvegicus [2]) | SMILES | IA (Rattus norvegicus [1]) [%]
40.7 | – | CCCCC1(C)C=C(/C(S)=N\C)c2cc([N+](=O)[O-])ccc2O1 (stereo unspecified) | 66.5
0.372 | – | CCC1(CC)C=C(/C(S)=N\C)c2cc([N+](=O)[O-])ccc2O1 | 70.3
> 31600 | – | CCC1C=C(/C(S)=N\C)c2cc([N+](=O)[O-])ccc2O1 (stereo unspecified) | –
0.017 | – | CCCC1(C)C=C(/C(S)=N\C)c2cc([N+](=O)[O-])ccc2O1 (stereo unspecified) | 62.6
0.182 | – | CCC1(C)C=C(/C(S)=N\C)c2cc([N+](=O)[O-])ccc2O1 (stereo unspecified) | 75.1
0.0209 | – | C/N=C(/S)C1=CC2(CCC2)Oc2ccc([N+](=O)[O-])cc21 | 68.2
0.398 | – | C/N=C(/S)C1=CC(C(C)(C)C)Oc2ccc([N+](=O)[O-])cc21 (stereo unspecified) | 71.7
